According to patent publication US20030114358A1, “Use of compatible solutes as inhibitors of the enzymatic decomposition of macromolecular biopolymers” (priority 2000, published 2003):

Legend:
Type in all cases: biochemical
[1] = tested on: monoclonal mouse anti-human IgG; experiment: ELISA residual signal after pepsin pretreatment of monoclonal mouse antibody; conditions: for Residual signal in ELISA, pretreated antibody monoclonal mouse antibody: two hours at 37° C.
Experimental: (§1) The inhibition by ectoine of the proteolysis of antibodies was additionally shown by enzyme-linked immunosorbent assay (ELISA). Thus, 96-well ELISA plates were coated over night with 0.5 μg of human IgG in 100 μl of 0.9% NaCl at 4° C. Subsequently, the plates were washed three times in 50 mM Tris, 0.8% NaCl, 0.020% KCl, pH 7.4, C(T-TBS), and blocked with 200 μl of 1% gelatin in TBS for 2 hours at 37° C. After three washes in T-TBS, an incubation was performed with monoclonal mouse anti-human IgG diluted 1:250 in TBS at 50 μl per well for one hour at 37° C. After four washes with T-TBS, incubation was performed with a peroxidase-conjugated rabbit anti-mouse antibody diluted 1:5000 in TBS at 100 μl per well for one hour at 37° C. After four additional washes, the enzyme reaction was performed by adding 100 μl of substrate per well. As the substrate was used 4.8 mg of phenylene diamine in 3 ml of 0.2 M Na2HPO4, 3 ml of 0.1 M citric acid, 6 ml of water, and 5 μl of H2O2. The reaction was stopped after about 10 minutes by acidification with 100 μl per well of 0.07 M sulfuric acid, and the plates were quantified in an ELISA autoreader. Prior to the experiment, all three protein components were proteolyzed by pepsin for two hours at 37° C. with or without the addition of 0.5 M ectoine. […] The antibody conjugate was not attacked by pepsin. The treatment was performed in an analogous manner with hydroxyectoine, proline and betaine.

[2] = tested on: human IgG; experiment: ELISA residual signal after pepsin pretreatment of human IgG; conditions: for Residual signal in ELISA, pretreated antibody human IgG: two hours at 37° C.
Experimental: as §1

[3] = tested on: peroxidase-conjugated rabbit anti-mouse antibody; experiment: ELISA residual signal after pepsin pretreatment of peroxidase conjugate; conditions: two hours at 37° C.
Experimental: as §1, with “The treatment was performed in an analogous manner with hydroxyectoine, proline and betaine.” left out

[4] = tested on: heavy chains of a human antibody (IgG); experiment: Limited proteolysis of human IgG by pepsin, quantified in 12% SDS gels; conditions: 0.5 M solute; 0.5 mg/ml antibody, 5 μg/ml pepsin, 37° C., 100 mM sodium acetate pH 3; FIG. 1
Experimental: Limited proteolyses of human IgG were performed at an antibody concentration of 0.5 mg/ml and a pepsin concentration of 5 μg/ml at 37° C. in 100 mM sodium acetate, pH 3. The incubations were performed without additions under 0.5 M ectoine, under 0.5 M hydroxyectoine, and under a mixture of 0.25 M ectoine and 0.25 M hydroxyectoine. The course of the limited proteolyses was quantified subsequent to the incubations in 12% SDS gels under reducing conditions.
Lanes 1, 5, 9: with water; lanes 2, 6, 10: with ectoine; lanes 3, 7, 11: with ectoine and hydroxyectoine; lanes 4, 8, 12; with hydroxyectoine; lanes 1, 2, 3, 4: without incubation; lanes 5, 6, 7, 8: after 15 min of incubation; lanes 9, 10, 11, 12: after 180 min of incubation.

[5] = target: pepsin (Homo sapiens, UniProt P0DJD8); experiment: Pepsin activity by spectrophotometry on hydrolysis of a synthetic hexapeptide; conditions: substrate Leu-Ser-p-NitroPhe-Nle-Ala-Leu methyl ester; enzyme-kinetic measurements
Sequence of pepsin (P0DJD8 63-388): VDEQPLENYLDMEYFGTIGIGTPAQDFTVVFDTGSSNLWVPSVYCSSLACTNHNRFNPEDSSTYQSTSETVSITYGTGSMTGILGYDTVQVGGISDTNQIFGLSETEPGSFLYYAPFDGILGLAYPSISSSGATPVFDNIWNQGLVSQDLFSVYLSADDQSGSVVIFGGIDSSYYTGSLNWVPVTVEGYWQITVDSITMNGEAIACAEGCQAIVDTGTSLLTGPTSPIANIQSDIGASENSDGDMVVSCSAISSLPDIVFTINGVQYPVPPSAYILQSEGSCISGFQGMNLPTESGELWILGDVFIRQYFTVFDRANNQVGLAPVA
Experimental: In principle, the experiments allow for two possible explanations. On the one hand, the compatible solutes could inhibit the protease. On the other hand, the solute could prevent the attack of the protease according to the invention for steric reasons through stabilization of the native, more compact conformation of the antibody molecule. Therefore, the effect of ectoine and hydroxyectoine on the activity of pepsin was determined by spectrophotometry on the hydrolysis of a synthetic low-molecular weight hexapeptide [E. Schinaith: Clin. Biochem. 22, 91-98 (1989)]. […] This is a clear indication of the fact that the inhibition of the antibody proteolyses is to be attributed to steric effects according to the invention.

[6] = with ectoine (0.5 M) and pepsin
[7] = with ectoine (0.5 M), without pepsin

Compound: CC1=NCC[C@@H](C(=O)O)N1 [ectoine]
- protection of monoclonal mouse antibody against proteolytic digest by pepsin ([1]; 0.5 M ectoine, ELISA): effectively protected
- Residual signal in ELISA, pretreated antibody monoclonal mouse antibody [1, 6]: 98%
- Residual signal in ELISA, pretreated antibody monoclonal mouse antibody [1, 7]: 97%
- protection of human IgG against proteolytic digest by pepsin ([2]; 0.5 M ectoine, ELISA): effectively protected
- Residual signal in ELISA, pretreated antibody human IgG [2, 6]: 91%
- Residual signal in ELISA, pretreated antibody human IgG [2, 7]: 85%
- Residual signal in ELISA, pretreated antibody peroxidase conjugate [3, 6]: 121%
- Residual signal in ELISA, pretreated antibody peroxidase conjugate [3, 7]: 98%
- hydrolysis of the heavy chain of human IgG by pepsin [4]: inhibited significantly
- inhibition of the protease pepsin [5]: neither ectoine nor hydroxyectoine inhibits the protease

Compound: CC1=NC[C@H](O)[C@@H](C(=O)O)N1 [hydroxyectoine]
- hydrolysis of the heavy chain of human IgG by pepsin [4]: inhibited significantly
- inhibition of the protease pepsin [5]: neither ectoine nor hydroxyectoine inhibits the protease
